One data set has as its target T1, CYP2D6 (Homo sapiens, UniProt P10635).
T1 construct: from tissue; host or cells: human liver microsomes
Briefly: CYP inhibition in human liver microsomes, 2D6. The data set is classed as in vitro ADME. Here is the method:
(§1) Table S2. Result of microsomal stability, plasma protein binding rate, and CYP inhibition of 6l and 6y
(§2) Compound MSa PPBrat human rat human 1A2 2C9 2C19 2D6 3A4
(§3) a % of remaining after 30 min. b plasma protein binding rate (%) at 5 μM concentrations. c % of CYP
(§4) inhibition in human liver microsomes at 10 μM concentrations. […]
For orientation: Liver microsomes are vesicles of endoplasmic reticulum, rich in cytochrome P450 enzymes.

The test system of a further data set is S. aureus USA300 JE2. The experiment in a line: Broth microdilution dose-response, S. aureus USA300 JE2 (MRSA). The settings on record: Staphylococcus aureus, USA300, USA300 JE2, methicillin-resistant; OD600 after 18–24 h; read-out: USA300 MIC50. The data set is classed as cell-based, Staphylococcus aureus. The source says:
The antistaphylococcal activities (MIC50) of the synthesized compounds were examined via a previously described broth microdilution method against two S. aureus strains: ATCC25923, a methicillin-sensitive reference strain, and JE2, a methicillin-resistant strain of the USA300 lineage (Figure 2, Table 1).
Staphylococcus aureus USA300, a methicillin-resistant strain, was obtained from the Nebraska Transposon Mutant Library. Staphylococcus aureus ATCC25923, a pan-drug-susceptible strain, was purchased from the American Type Culture Collection (ATCC) (Manassas, VA, USA). S. aureus strains were grown in Cation-Adjusted Mueller–Hinton broth (CAMHB) (Difco) at 37 °C. Bacterial strain stocks were stored in vials with 25% glycerol at −80 °C. For each experiment, overnight cultures were prepared by inoculating a frozen bacterial strain stock in 10 mL of CAMHB medium and incubating at 37 °C in a shaking incubator (180 rpm). For the preliminary screen and dose–response experiments, 100 µL of overnight culture was inoculated into 10 mL of fresh CAMHB and incubated for 3 h at 37 °C and 180 rpm.
Antibiotic susceptibility assay was tested according to modified Clinical and Laboratory Standards Institute (CLSI) laboratory guidelines for broth microdilution assays. S. aureus was cultured in CAMHB, and bacterial cells were prepared with an OD600 of 0.005. DRC plates were prepared by adding 40 µL of bacterial suspension to each well, where 10 µL of each compound had been dispensed for […] of two-fold serial dilutions starting at […]. After incubation of the plates at 37 °C for 18–24 h with 5% CO2, the growth of S. aureus was detected by measuring the OD600nm using an Ensight (Revvity) spectrometer (Revvity, Waltham, MA, USA).
Figure 2 In vitro antibacterial activities of 2-(amino)quinazolin-4(3H)-one derivatives. S. aureus ATCC25923 (blue) and USA300 JE (orange) strains were incubated with serial dilutions of 2-(amino)quinazolin-4(3H)-one derivatives (0.19–100 µM) for 18–24 h. The dose–responses were observed by measuring OD600nm. The plots were drawn from each group of strains with nonlinear curve fits.
In general terms: Dilution methods test growth across graded concentrations, often in twofold steps.

The target in the next data set is T2, CYP3A4 (Homo sapiens, UniProt P08684).
T2 construct: from tissue; host or cells: human liver microsomes
T2 sequence (P08684 whole entry): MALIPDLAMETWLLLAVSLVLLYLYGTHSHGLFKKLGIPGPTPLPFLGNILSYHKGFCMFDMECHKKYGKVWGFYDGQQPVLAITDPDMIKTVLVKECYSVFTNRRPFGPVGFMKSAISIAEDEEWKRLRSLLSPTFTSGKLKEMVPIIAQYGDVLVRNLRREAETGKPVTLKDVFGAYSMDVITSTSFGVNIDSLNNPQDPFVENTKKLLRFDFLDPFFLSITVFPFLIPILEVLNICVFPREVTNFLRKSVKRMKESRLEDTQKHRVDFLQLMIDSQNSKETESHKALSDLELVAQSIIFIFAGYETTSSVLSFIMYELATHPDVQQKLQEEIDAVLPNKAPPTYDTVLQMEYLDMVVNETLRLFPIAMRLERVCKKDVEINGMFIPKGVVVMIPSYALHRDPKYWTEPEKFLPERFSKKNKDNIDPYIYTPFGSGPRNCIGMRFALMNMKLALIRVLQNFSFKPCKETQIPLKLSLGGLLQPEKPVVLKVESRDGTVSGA
Briefly: CYP inhibition in human liver microsomes, 3A4. The data set is classed as in vitro ADME. How it is done: as §1, §2, §3, §4

Converted amounts (≈) assume the structure as drawn.

T1 sequence (P10635 whole entry): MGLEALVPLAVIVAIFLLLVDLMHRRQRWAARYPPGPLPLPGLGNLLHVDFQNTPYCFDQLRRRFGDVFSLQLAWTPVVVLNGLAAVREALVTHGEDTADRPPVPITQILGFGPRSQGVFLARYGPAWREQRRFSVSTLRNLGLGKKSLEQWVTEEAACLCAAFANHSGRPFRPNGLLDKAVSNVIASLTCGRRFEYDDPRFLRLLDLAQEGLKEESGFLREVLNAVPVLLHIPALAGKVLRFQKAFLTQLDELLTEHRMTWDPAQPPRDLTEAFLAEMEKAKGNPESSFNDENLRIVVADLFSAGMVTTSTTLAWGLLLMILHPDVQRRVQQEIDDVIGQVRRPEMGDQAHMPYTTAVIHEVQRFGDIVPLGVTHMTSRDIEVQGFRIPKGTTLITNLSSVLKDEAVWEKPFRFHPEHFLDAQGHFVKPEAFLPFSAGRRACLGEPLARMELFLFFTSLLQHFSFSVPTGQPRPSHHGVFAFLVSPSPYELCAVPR

For the molecule `O=c1[nH]c(Nc2cc(Cl)cc(Cl)c2)nc2cc(Cl)ccc12` [6l, 7-Chloro-2-((3,5-dichlorophenyl)amino)quinazolin-4(3H)-one], the inhibition (usually the percentage by which the read-out fell short of the control) at 10 µM against CYP2D6 is 20.1%; against CYP3A4, 32.2%. Moreover, in the data set on S. aureus USA300 JE2, the MIC50 (usually an inhibitory concentration at the 50% level, which refers to growth in some studies and to a panel of isolates in others) amounted to 0.6 µM (≈ 0.204 µg/mL).
On the same counts, the results for `O=c1[nH]c(NCc2ccc(F)c(F)c2)nc2cc(Cl)ccc12` [6y, 7-Chloro-2-((3,4-difluorobenzyl)amino)quinazolin-4(3H)-one] are 90.1%, 91.4% and 0.02 µM (≈ 0.00643 µg/mL).

For the origin of these results see article PMC12561453, “Synthesis and Structure–Activity Relationship Study of 2-(amino)quinazolin-4(3H)-one Derivatives as Potential Inhibitors of Methicillin-Resistant Staphylococcus aureus (MRSA)” (Antibiotics, 2025).
